The values below come from patent US20230123334A1, “AMINO LIPID COMPOUND, PREPARATION METHOD THEREFOR, AND APPLICATION THEREOF” (SHENZHEN SHENXIN BIOTECHNOLOGY CO., LTD., priority 2020, published 2023).

Assay [1] relates to HEK293 cells. In words: Preliminary screening as DNA vectors, GFP transfection of HEK293 cells. The format is cell-based. Particulars: HEK293 cells; lipid/DOPE liposome with 75 ng plasmid DNA (psin-EGFP-IRES-Puro); number of cells expressing GFP divided by total number of nuclei (Hoechst). In outline: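 First, amino lipid and DOPE were vortexed in sodium acetate buffer (pH 5.6) to form liposomes. Next, these were held with 75 ng EGFP plasmid at room temperature for 30 min. Finally, HEK293 cells were added, cultured at 37° C., Hoechst-stained, and GFP+/total nuclei scored by imaging.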

The test system of assay [2] is HEK293 cells. In words: Preliminary screening as mRNA vectors, EGFP mRNA transfection of HEK293 cells. The format is cell-based. Particulars: HEK293 cells, 96-well plates, EGFP mRNA 50 ng per well; percentage of GFP fluorescent cells relative to total number of cells (Hoechst). In outline: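 Screening format: EGFP mRNA transfection (50 ng/well) into HEK293 in 10% FBS-supplemented DMEM. Percent green fluorescent cells, normalised to Hoechst nuclear count, gave the value; Lipofectamine2000 was the reference transfectant.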

On to `CCCCCCCCCCCCCCCCCCNc1nc(NCCCCCCCCC)nc(NCCCN2CCN(C)CC2)n1` [Compound N9N18D9], for which the “Absolute DNA transfection efficiency in HEK293 cells” value (“Absolute DNA transfection efficiency” below) with HEK293 cells [1] stood at 0.3%. Further, the “Absolute mRNA transfection efficiency in HEK293 cells” value (shortened to “Absolute mRNA transfection efficiency”) with HEK293 cells [2] is reported as 3.1%.

Regarding `CCCCCCCCCCCCCCCCCCNc1nc(NCCCCCCCCC)nc(NCC2CCN(C)CC2)n1` [Compound N9N18D10], the “Absolute DNA transfection efficiency” value in the assay with HEK293 cells [1] turned out to be 2.6%. Besides, the “Absolute mRNA transfection efficiency” value in the assay with HEK293 cells [2] is reported as 1.9%.

As to `CCCCCCCCCCCNc1nc(NCCCCCCCCCCC)nc(NCCN(C)C)n1` [Compound N11N11D1], in the assay on HEK293 cells [1], the “Absolute DNA transfection efficiency” value worked out at 0.9%. Further, the “Absolute mRNA transfection efficiency” value in the assay on HEK293 cells [2] amounted to 4.3%.

Turning to `CCCCCCCCCCCNc1nc(NCCCCCCCCCCC)nc(NCCN2CCOCC2)n1` [Compound N11N11D2], in the assay with HEK293 cells [1], the “Absolute DNA transfection efficiency” value came to 0.0%. Moreover, the “Absolute mRNA transfection efficiency” value in the assay on HEK293 cells [2] was found to be 1.4%.

For the compound `CCCCCCCCCCCNc1nc(NCCCCCCCCCCC)nc(NCCN2CCCC2)n1` [Compound N11N11D3], the “Absolute DNA transfection efficiency” value with HEK293 cells [1] turned out to be 1.8%. Besides, the “Absolute mRNA transfection efficiency” value in the assay on HEK293 cells [2] is on record as 1.4%.

Take `CCCCCCCCCCCNc1nc(NCCCCCCCCCCC)nc(NCCN2CCCCC2)n1` [Compound N11N11D4]: the “Absolute DNA transfection efficiency” value in the assay with HEK293 cells [1] was 0.0%. For the same compound, the “Absolute mRNA transfection efficiency” value in the assay on HEK293 cells [2] amounted to 4.1%.

On to `CCCCCCCCCCCNc1nc(NCCCCCCCCCCC)nc(NCCN2CCN(C)CC2)n1` [Compound N11N11D5], for which the “Absolute DNA transfection efficiency” value in the assay with HEK293 cells [1] is 0.9%. Also, in the assay with HEK293 cells [2], the “Absolute mRNA transfection efficiency” value amounted to 0.4%.

Turning to `CCCCCCCCCCCNc1nc(NCCCCCCCCCCC)nc(NCCCN(C)C)n1` [Compound N11N11D6], the “Absolute DNA transfection efficiency” value in the assay on HEK293 cells [1] was 0.7%. Also, the “Absolute mRNA transfection efficiency” value with HEK293 cells [2] is reported as 1.1%.

On to `CCCCCCCCCCCNc1nc(NCCCCCCCCCCC)nc(NCCN(CC)CC)n1` [Compound N11N11D7], for which, in the assay on HEK293 cells [1], the “Absolute DNA transfection efficiency” value worked out at 0.6%. In the assay with HEK293 cells [2], the “Absolute mRNA transfection efficiency” value came to 5.5%.

For the compound `CCCCCCCCCCCNc1nc(NCCCCCCCCCCC)nc(NCCCN2CCOCC2)n1` [Compound N11N11D8], in the assay on HEK293 cells [1], the “Absolute DNA transfection efficiency” value came out at 0.0%. Further, the “Absolute mRNA transfection efficiency” value in the assay with HEK293 cells [2] was 1.5%.

In the case of `CCCCCCCCCCCNc1nc(NCCCCCCCCCCC)nc(NCCCN2CCN(C)CC2)n1` [Compound N11N11D9], the “Absolute DNA transfection efficiency” value with HEK293 cells [1] was 0.0%. Moreover, in the assay with HEK293 cells [2], the “Absolute mRNA transfection efficiency” value was determined as 0.3%.

In the case of `CCCCCCCCCCCNc1nc(NCCCCCCCCCCC)nc(NCC2CCN(C)CC2)n1` [Compound N11N11D10], the “Absolute DNA transfection efficiency” value in the assay on HEK293 cells [1] was determined as 0.5%. Further, in the assay on HEK293 cells [2], the “Absolute mRNA transfection efficiency” value was determined as 1.2%.

As for `CCCCCCCCCCCCNc1nc(NCCCCCCCCCCC)nc(NCCN(C)C)n1` [Compound N11N12D1], in the assay on HEK293 cells [1], the “Absolute DNA transfection efficiency” value worked out at 0.0%. Further, the “Absolute mRNA transfection efficiency” value in the assay on HEK293 cells [2] worked out at 0.3%.

Take `CCCCCCCCCCCCNc1nc(NCCCCCCCCCCC)nc(NCCN2CCOCC2)n1` [Compound N11N12D2]: the “Absolute DNA transfection efficiency” value in the assay with HEK293 cells [1] came out at 0.5%. Further, in the assay with HEK293 cells [2], the “Absolute mRNA transfection efficiency” value is given as 0.5%.

Consider `CCCCCCCCCCCCNc1nc(NCCCCCCCCCCC)nc(NCCN2CCCC2)n1` [Compound N11N12D3], for which the “Absolute DNA transfection efficiency” value with HEK293 cells [1] is listed as 1.9%. Moreover, the “Absolute mRNA transfection efficiency” value in the assay on HEK293 cells [2] was determined as 2.7%.

Turning to `CCCCCCCCCCCCNc1nc(NCCCCCCCCCCC)nc(NCCN2CCCCC2)n1` [Compound N11N12D4], the “Absolute DNA transfection efficiency” value in the assay with HEK293 cells [1] worked out at 0.0%. In addition, the “Absolute mRNA transfection efficiency” value in the assay on HEK293 cells [2] was found to be 1.2%.

With `CCCCCCCCCCCCNc1nc(NCCCCCCCCCCC)nc(NCCN2CCN(C)CC2)n1` [Compound N11N12D5], the “Absolute DNA transfection efficiency” value in the assay on HEK293 cells [1] is given as 0.0%. The “Absolute mRNA transfection efficiency” value with HEK293 cells [2] is on record as 8.0%.

Regarding `CCCCCCCCCCCCNc1nc(NCCCCCCCCCCC)nc(NCCCN(C)C)n1` [Compound N11N12D6], in the assay on HEK293 cells [1], the “Absolute DNA transfection efficiency” value stood at 0.5%. Moreover, the “Absolute mRNA transfection efficiency” value with HEK293 cells [2] was found to be 8.1%.

In the case of `CCCCCCCCCCCCNc1nc(NCCCCCCCCCCC)nc(NCCN(CC)CC)n1` [Compound N11N12D7], the “Absolute DNA transfection efficiency” value in the assay with HEK293 cells [1] is 0.0%. The “Absolute mRNA transfection efficiency” value in the assay with HEK293 cells [2] turned out to be 2.4%.

Turning to `CCCCCCCCCCCCNc1nc(NCCCCCCCCCCC)nc(NCCCN2CCOCC2)n1` [Compound N11N12D8], the “Absolute DNA transfection efficiency” value in the assay on HEK293 cells [1] is 0.0%. The “Absolute mRNA transfection efficiency” value with HEK293 cells [2] worked out at 2.8%.

Turning to `CCCCCCCCCCCCNc1nc(NCCCCCCCCCCC)nc(NCCCN2CCN(C)CC2)n1` [Compound N11N12D9], the “Absolute DNA transfection efficiency” value in the assay with HEK293 cells [1] stood at 0.0%. Further, in the assay with HEK293 cells [2], the “Absolute mRNA transfection efficiency” value is 0.3%.

Consider `CCCCCCCCCCCCNc1nc(NCCCCCCCCCCC)nc(NCC2CCN(C)CC2)n1` [Compound N11N12D10], for which the “Absolute DNA transfection efficiency” value with HEK293 cells [1] stood at 1.8%. Also, the “Absolute mRNA transfection efficiency” value in the assay with HEK293 cells [2] came out at 0.4%.

As to `CCCCCCCCCCCCCNc1nc(NCCCCCCCCCCC)nc(NCCN(C)C)n1` [Compound N11N13D1], the “Absolute DNA transfection efficiency” value with HEK293 cells [1] is listed as 1.4%. The “Absolute mRNA transfection efficiency” value with HEK293 cells [2] came to 5.9%.

Regarding `CCCCCCCCCCCCCNc1nc(NCCCCCCCCCCC)nc(NCCN2CCOCC2)n1` [Compound N11N13D2], the “Absolute DNA transfection efficiency” value in the assay on HEK293 cells [1] was 0.0%. Moreover, the “Absolute mRNA transfection efficiency” value in the assay with HEK293 cells [2] stood at 0.1%.

With `CCCCCCCCCCCCCNc1nc(NCCCCCCCCCCC)nc(NCCN2CCCC2)n1` [Compound N11N13D3], in the assay on HEK293 cells [1], the “Absolute DNA transfection efficiency” value is 0.0%. The “Absolute mRNA transfection efficiency” value in the assay on HEK293 cells [2] came to 3.6%.

Regarding `CCCCCCCCCCCCCNc1nc(NCCCCCCCCCCC)nc(NCCN2CCCCC2)n1` [Compound N11N13D4], the “Absolute DNA transfection efficiency” value with HEK293 cells [1] was 0.0%. In the assay on HEK293 cells [2], the “Absolute mRNA transfection efficiency” value was determined as 0.9%.

For the compound `CCCCCCCCCCCCCNc1nc(NCCCCCCCCCCC)nc(NCCN2CCN(C)CC2)n1` [Compound N11N13D5], the “Absolute DNA transfection efficiency” value in the assay on HEK293 cells [1] is 0.1%. In addition, the “Absolute mRNA transfection efficiency” value in the assay with HEK293 cells [2] worked out at 0.2%.

For the compound `CCCCCCCCCCCCCNc1nc(NCCCCCCCCCCC)nc(NCCCN(C)C)n1` [Compound N11N13D6], the “Absolute DNA transfection efficiency” value in the assay on HEK293 cells [1] is 0.8%. Besides, in the assay with HEK293 cells [2], the “Absolute mRNA transfection efficiency” value was found to be 0.2%.

`CCCCCCCCCCCCCNc1nc(NCCCCCCCCCCC)nc(NCCN(CC)CC)n1` [Compound N11N13D7]: the “Absolute DNA transfection efficiency” value in the assay with HEK293 cells [1] was determined as 0.5%. Moreover, in the assay on HEK293 cells [2], the “Absolute mRNA transfection efficiency” value came out at 0.9%.

On to `CCCCCCCCCCCCCNc1nc(NCCCCCCCCCCC)nc(NCCCN2CCOCC2)n1` [Compound N11N13D8], for which the “Absolute DNA transfection efficiency” value in the assay with HEK293 cells [1] came to 0.0%. For the same compound, the “Absolute mRNA transfection efficiency” value in the assay on HEK293 cells [2] worked out at 0.6%.

With `CCCCCCCCCCCCCNc1nc(NCCCCCCCCCCC)nc(NCCCN2CCN(C)CC2)n1` [Compound N11N13D9], the “Absolute DNA transfection efficiency” value in the assay on HEK293 cells [1] is on record as 0.0%. For the same compound, the “Absolute mRNA transfection efficiency” value in the assay on HEK293 cells [2] is 7.1%.

Turning to `CCCCCCCCCCCCCNc1nc(NCCCCCCCCCCC)nc(NCC2CCN(C)CC2)n1` [Compound N11N13D10], in the assay with HEK293 cells [1], the “Absolute DNA transfection efficiency” value amounted to 0.0%. Also, the “Absolute mRNA transfection efficiency” value in the assay with HEK293 cells [2] is given as 0.0%.
